Measured values reported in patent US8461305B2, “L-fucose α1→6 specific lectin” (J-Oil Mills, Inc., priority 2008, dated 2013).
Values belong to the molecule of their own block, whether it stands above or below them.

What was measured:
[1] = hemagglutinating inhibition test with sugars (sugar binding specificity); assay type: cell-based
Text: (§1) The sugar binding specificity of lectin also can be confirmed by using erythrocytes that can be specifically agglutinated by the lectin to investigate the sugar type that may inhibit the agglutination of the erythrocytes and the concentration thereof.
(§2) Various monosaccharides, oligosaccharides, and polysaccharides shown in Table 2 and glycoproteins shown in Table 3 were subjected to hemagglutinating inhibition test to evaluate PTL of Example 1 and the SRL of Example 2 with regard to the sugar binding specificity.
(§3) On a 96 well U-bottom microtiter plate, double dilution series of 10 μl of monosaccharide, oligosaccharide, polysaccharide, and glycoprotein solutions were prepared. Then, lectin solution adjusted in advance to have titer 4 was added in an amount of 10 μl to the respective wells. Then, the plate was subjected to a still-standing at a room temperature for one hour for sensitization. Then, 10 μl of 4%-red blood cell suspension was added to the respective wells and the plate was further subjected to a still-standing at a room temperature for one hour. […] The lowest concentration showing the inhibition was assumed as the minimum inhibition concentration. The lower the minimum inhibition concentration is, the higher the specificity to lectin is.
(§4) For comparison, the sugar binding specificity was evaluated using the following commercially-available lectins: Comparison Example 1: AAL (SEIKAGAKU BIOBUSINESS CORPORATION—J-OIL MILLS, Inc.), Comparison Example 2: AOL (TOKYO CHEMICAL INDUSTRY CO., LTD.—Gekkeikan Sake Company, Ltd.), Comparison Example 3: LCA (SEIKAGAKU BIOBUSINESS CORPORATION—J-OIL MILLS, Inc.), and Comparison Example 4: PSA (SEIKAGAKU BIOBUSINESS CORPORATION—J-OIL MILLS, Inc.).

glycoproteins = test: hemagglutinating inhibition test with glycoproteins (sugar binding specificity); assay type: cell-based
Text: as §1, §2, §3, §4

[2] = inhibitor: N-Acetylneuraminic acid
[3] = inhibitor: N-acetylgalactosamine
[4] = inhibitor: N-glycolylneuraminic acid
[5] = inhibitor: Bovine blood serum albumin
[6] = inhibitor: Human immune globulin A
[7] = inhibitor: Human immune globulin G
[8] = inhibitor: α1-acidic glycoprotein

Molecule: Stropharia rugosoannulata lectin [SRL, novel L-fucose α1→6 specific lectin purified from the mushroom Stropharia rugosoannulata]
minimum inhibition concentration of hemagglutination ([1]; inhibitor: Fructose): >100 mM
minimum inhibition concentration of hemagglutination ([1]; inhibitor: Galactose): >100 mM
minimum inhibition concentration of hemagglutination ([1]; inhibitor: Glucose): >100 mM
minimum inhibition concentration of hemagglutination ([1]; inhibitor: L-fucose): >100 mM
minimum inhibition concentration of hemagglutination ([1]; inhibitor: Lactose): >6 mM
minimum inhibition concentration of hemagglutination ([1]; inhibitor: Maltose): >100 mM
minimum inhibition concentration of hemagglutination ([1]; inhibitor: Mannose): >100 mM
minimum inhibition concentration of hemagglutination ([1]; inhibitor: Melibiose): >100 mM
minimum inhibition concentration of hemagglutination ([1]; inhibitor: Metyl α-mannoside): >100 mM
minimum inhibition concentration of hemagglutination [1, 2]: >100 mM
minimum inhibition concentration of hemagglutination [1, 3]: >100 mM
minimum inhibition concentration of hemagglutination ([1]; inhibitor: N-acetylglucosamine): >100 mM
minimum inhibition concentration of hemagglutination [1, 4]: >100 mM
minimum inhibition concentration of hemagglutination ([1]; inhibitor: Raffinose): >100 mM
minimum inhibition concentration of hemagglutination ([1]; inhibitor: Rhamnose): >100 mM
minimum inhibition concentration of hemagglutination ([1]; inhibitor: Serial lactose): >6 mM
minimum inhibition concentration of hemagglutination ([1]; inhibitor: Sucrose): >100 mM
minimum inhibition concentration of hemagglutination ([1]; inhibitor: Xylose): >100 mM
minimum inhibition concentration of hemagglutination (glycoproteins; inhibitor: Asialofetuin): >250 μl/ml
minimum inhibition concentration of hemagglutination (glycoproteins; inhibitor: Asialomucin (pig)): >250 μl/ml
minimum inhibition concentration of hemagglutination (glycoproteins; [5]): >250 μl/ml
minimum inhibition concentration of hemagglutination (glycoproteins; inhibitor: Casein): >250 μl/ml
minimum inhibition concentration of hemagglutination (glycoproteins; inhibitor: Fetuin): >250 μl/ml
minimum inhibition concentration of hemagglutination (glycoproteins; [6]): >250 μl/ml
minimum inhibition concentration of hemagglutination (glycoproteins; [7]): >250 μl/ml
minimum inhibition concentration of hemagglutination (glycoproteins; inhibitor: Lactoferrin): >250 μl/ml
minimum inhibition concentration of hemagglutination (glycoproteins; inhibitor: Mucin (bovine)): >250 μl/ml
minimum inhibition concentration of hemagglutination (glycoproteins; inhibitor: Mucin (pig)): >250 μl/ml
minimum inhibition concentration of hemagglutination (glycoproteins; inhibitor: Ribonuclease): >250 μl/ml
minimum inhibition concentration of hemagglutination (glycoproteins; inhibitor: Thyroglobulin): 250 μl/ml
minimum inhibition concentration of hemagglutination (glycoproteins; inhibitor: Transferrin): >250 μl/ml
minimum inhibition concentration of hemagglutination (glycoproteins; [8]): >250 μl/ml

Molecule: Aspergillus oryzae lectin [AOL, reference compound]
minimum inhibition concentration of hemagglutination ([1]; inhibitor: Fructose): 25 mM
minimum inhibition concentration of hemagglutination ([1]; inhibitor: Galactose): >100 mM
minimum inhibition concentration of hemagglutination ([1]; inhibitor: Glucose): >100 mM
minimum inhibition concentration of hemagglutination ([1]; inhibitor: L-fucose): 0.391 mM
minimum inhibition concentration of hemagglutination ([1]; inhibitor: Lactose): >6 mM
minimum inhibition concentration of hemagglutination ([1]; inhibitor: Maltose): >100 mM
minimum inhibition concentration of hemagglutination ([1]; inhibitor: Mannose): 100 mM
minimum inhibition concentration of hemagglutination ([1]; inhibitor: Melibiose): >100 mM
minimum inhibition concentration of hemagglutination ([1]; inhibitor: Metyl α-mannoside): >100 mM
minimum inhibition concentration of hemagglutination [1, 2]: >100 mM
minimum inhibition concentration of hemagglutination [1, 3]: >100 mM
minimum inhibition concentration of hemagglutination ([1]; inhibitor: N-acetylglucosamine): >100 mM
minimum inhibition concentration of hemagglutination [1, 4]: >100 mM
minimum inhibition concentration of hemagglutination ([1]; inhibitor: Raffinose): >100 mM
minimum inhibition concentration of hemagglutination ([1]; inhibitor: Rhamnose): 100 mM
minimum inhibition concentration of hemagglutination ([1]; inhibitor: Serial lactose): >6 mM
minimum inhibition concentration of hemagglutination ([1]; inhibitor: Sucrose): >100 mM
minimum inhibition concentration of hemagglutination ([1]; inhibitor: Xylose): >100 mM
minimum inhibition concentration of hemagglutination (glycoproteins; inhibitor: Asialofetuin): >250 μl/ml
minimum inhibition concentration of hemagglutination (glycoproteins; inhibitor: Asialomucin (pig)): 62.5 μl/ml
minimum inhibition concentration of hemagglutination (glycoproteins; [5]): >250 μl/ml
minimum inhibition concentration of hemagglutination (glycoproteins; inhibitor: Casein): >250 μl/ml
minimum inhibition concentration of hemagglutination (glycoproteins; inhibitor: Fetuin): >250 μl/ml
minimum inhibition concentration of hemagglutination (glycoproteins; [6]): >250 μl/ml
minimum inhibition concentration of hemagglutination (glycoproteins; [7]): >250 μl/ml
minimum inhibition concentration of hemagglutination (glycoproteins; inhibitor: Lactoferrin): >250 μl/ml
minimum inhibition concentration of hemagglutination (glycoproteins; inhibitor: Mucin (bovine)): >250 μl/ml
minimum inhibition concentration of hemagglutination (glycoproteins; inhibitor: Mucin (pig)): 62.5 μl/ml
minimum inhibition concentration of hemagglutination (glycoproteins; inhibitor: Ribonuclease): >250 μl/ml
minimum inhibition concentration of hemagglutination (glycoproteins; inhibitor: Thyroglobulin): >250 μl/ml
minimum inhibition concentration of hemagglutination (glycoproteins; inhibitor: Transferrin): >250 μl/ml
minimum inhibition concentration of hemagglutination (glycoproteins; [8]): >250 μl/ml

Results, then the molecule that gave them:

minimum inhibition concentration of hemagglutination ([1]; inhibitor: Fructose): >100 mM
minimum inhibition concentration of hemagglutination ([1]; inhibitor: Galactose): >100 mM
minimum inhibition concentration of hemagglutination ([1]; inhibitor: Glucose): >100 mM
minimum inhibition concentration of hemagglutination ([1]; inhibitor: L-fucose): >100 mM
minimum inhibition concentration of hemagglutination ([1]; inhibitor: Lactose): >6 mM
minimum inhibition concentration of hemagglutination ([1]; inhibitor: Maltose): >100 mM
minimum inhibition concentration of hemagglutination ([1]; inhibitor: Mannose): >100 mM
minimum inhibition concentration of hemagglutination ([1]; inhibitor: Melibiose): >100 mM
minimum inhibition concentration of hemagglutination ([1]; inhibitor: Metyl α-mannoside): >100 mM
minimum inhibition concentration of hemagglutination [1, 2]: >100 mM
minimum inhibition concentration of hemagglutination [1, 3]: >100 mM
minimum inhibition concentration of hemagglutination ([1]; inhibitor: N-acetylglucosamine): >100 mM
minimum inhibition concentration of hemagglutination [1, 4]: >100 mM
minimum inhibition concentration of hemagglutination ([1]; inhibitor: Raffinose): >100 mM
minimum inhibition concentration of hemagglutination ([1]; inhibitor: Rhamnose): >100 mM
minimum inhibition concentration of hemagglutination ([1]; inhibitor: Serial lactose): >6 mM
minimum inhibition concentration of hemagglutination ([1]; inhibitor: Sucrose): >100 mM
minimum inhibition concentration of hemagglutination ([1]; inhibitor: Xylose): >100 mM
minimum inhibition concentration of hemagglutination (glycoproteins; inhibitor: Asialofetuin): >250 μl/ml
minimum inhibition concentration of hemagglutination (glycoproteins; inhibitor: Asialomucin (pig)): >250 μl/ml
minimum inhibition concentration of hemagglutination (glycoproteins; [5]): >250 μl/ml
minimum inhibition concentration of hemagglutination (glycoproteins; inhibitor: Casein): >250 μl/ml
minimum inhibition concentration of hemagglutination (glycoproteins; inhibitor: Fetuin): >250 μl/ml
minimum inhibition concentration of hemagglutination (glycoproteins; [6]): >250 μl/ml
minimum inhibition concentration of hemagglutination (glycoproteins; [7]): >250 μl/ml
minimum inhibition concentration of hemagglutination (glycoproteins; inhibitor: Lactoferrin): >250 μl/ml
minimum inhibition concentration of hemagglutination (glycoproteins; inhibitor: Mucin (bovine)): >250 μl/ml
minimum inhibition concentration of hemagglutination (glycoproteins; inhibitor: Mucin (pig)): >250 μl/ml
minimum inhibition concentration of hemagglutination (glycoproteins; inhibitor: Ribonuclease): >250 μl/ml
minimum inhibition concentration of hemagglutination (glycoproteins; inhibitor: Thyroglobulin): 250 μl/ml
minimum inhibition concentration of hemagglutination (glycoproteins; inhibitor: Transferrin): >250 μl/ml
minimum inhibition concentration of hemagglutination (glycoproteins; [8]): >250 μl/ml
Molecule: Pholiota terrestris lectin [PTL, novel L-fucose α1→6 specific lectin purified from the mushroom Pholiota terrestris]

minimum inhibition concentration of hemagglutination ([1]; inhibitor: Fructose): 25 mM
minimum inhibition concentration of hemagglutination ([1]; inhibitor: Galactose): >100 mM
minimum inhibition concentration of hemagglutination ([1]; inhibitor: Glucose): >100 mM
minimum inhibition concentration of hemagglutination ([1]; inhibitor: L-fucose): 0.391 mM
minimum inhibition concentration of hemagglutination ([1]; inhibitor: Lactose): >6 mM
minimum inhibition concentration of hemagglutination ([1]; inhibitor: Maltose): >100 mM
minimum inhibition concentration of hemagglutination ([1]; inhibitor: Mannose): 50 mM
minimum inhibition concentration of hemagglutination ([1]; inhibitor: Melibiose): >100 mM
minimum inhibition concentration of hemagglutination ([1]; inhibitor: Metyl α-mannoside): >100 mM
minimum inhibition concentration of hemagglutination [1, 2]: >100 mM
minimum inhibition concentration of hemagglutination [1, 3]: >100 mM
minimum inhibition concentration of hemagglutination ([1]; inhibitor: N-acetylglucosamine): >100 mM
minimum inhibition concentration of hemagglutination [1, 4]: >100 mM
minimum inhibition concentration of hemagglutination ([1]; inhibitor: Raffinose): >100 mM
minimum inhibition concentration of hemagglutination ([1]; inhibitor: Rhamnose): >100 mM
minimum inhibition concentration of hemagglutination ([1]; inhibitor: Serial lactose): >6 mM
minimum inhibition concentration of hemagglutination ([1]; inhibitor: Sucrose): >100 mM
minimum inhibition concentration of hemagglutination ([1]; inhibitor: Xylose): >100 mM
minimum inhibition concentration of hemagglutination (glycoproteins; inhibitor: Asialofetuin): >250 μl/ml
minimum inhibition concentration of hemagglutination (glycoproteins; inhibitor: Asialomucin (pig)): 31.3 μl/ml
minimum inhibition concentration of hemagglutination (glycoproteins; [5]): >250 μl/ml
minimum inhibition concentration of hemagglutination (glycoproteins; inhibitor: Casein): >250 μl/ml
minimum inhibition concentration of hemagglutination (glycoproteins; inhibitor: Fetuin): >250 μl/ml
minimum inhibition concentration of hemagglutination (glycoproteins; [6]): >250 μl/ml
minimum inhibition concentration of hemagglutination (glycoproteins; [7]): >250 μl/ml
minimum inhibition concentration of hemagglutination (glycoproteins; inhibitor: Lactoferrin): >250 μl/ml
minimum inhibition concentration of hemagglutination (glycoproteins; inhibitor: Mucin (bovine)): >250 μl/ml
minimum inhibition concentration of hemagglutination (glycoproteins; inhibitor: Mucin (pig)): 15.6 μl/ml
minimum inhibition concentration of hemagglutination (glycoproteins; inhibitor: Ribonuclease): >250 μl/ml
minimum inhibition concentration of hemagglutination (glycoproteins; inhibitor: Thyroglobulin): 125 μl/ml
minimum inhibition concentration of hemagglutination (glycoproteins; inhibitor: Transferrin): >250 μl/ml
minimum inhibition concentration of hemagglutination (glycoproteins; [8]): >250 μl/ml
B1: Aleuria aurantia lectin (protein)
chain: PTEFLYTSKIAAISWAATGGRQQRVYFQDLNGKIREAQRGGDNPWTGGSSQNVIGEAKLFSPLAAVTWKSAQGIQIRVYCVNKDNILSEFVYDGSKWITGQLGSVGVKVGSNSKLAALQWGGSESAPPNIRVYYQKSNGSGSSIHEYVWSGKWTAGASFGSTVPGTGIGATAIGPGRLRIYYQATDNKIREHCWDSNSWYVGGFSASASAGVSIAAISWGSTPNIRVYWQKGREELYEAAYGGSWNTPGQIKDASRPTPSLPDTFIAANSSGNIDISVFFQASGVSLQQWQWISGKGWSIGAVVPTGTPAGW
